Where two headings read alike, the source gives them in different places.
What was measured:
[1] = tested on: primary cells of intestinal cancer; assay: Effect of single additives in Basic Medium on proliferation of primary cells of intestinal cancer (cell count); format: cell-based, human; parameters: key: +: compared with the Basic Medium, the medium added with the additive(s) has the effect of promoting the proliferation of primary cells of intestinal cancer isolated from intestinal cancer tissue in at least two cases; −: the medium added with the additive(s) has the effect of inhibiting the proliferation of primary cells of intestinal cancer isolated from intestinal cancer tissue in at least one case; ∘: the medium added with the additive(s) has no significant effect on the proliferation of primary cells of intestinal cancer isolated from intestinal cancer tissue in at least two cases
Description: First, Basic Medium was prepared. The formulation of Basic Medium is: DMEM/F12 medium (purchased from Corning)+5 μM Y27632 (purchased from MCE)+5% (v/v) fetal bovine serum (purchased from Excell Bio)+100 μg/mL Primocin (purchased from InvivoGen, 0.2% (v/v), the concentration of commercial product is 50 mg/ml).
Different types of additives (see Table 1) were added to the Basic Medium to prepare the culture mediums for primary cells of intestinal cancer containing different components.
The culture mediums of different components as shown in Table 1 were added into a 48-well plate at a volume of 1 mL/well. Primary cells of intestinal cancer isolated from two cases of intestinal cancer tissues (numbered OE0042 and OE(E)003) according to the above step (2) were inoculated into the 48-well culture plate at a cell density of 3×10^4 cells/well, and were cultured at 37° C., under 5% CO2 concentration. After culturing for 7-10 days, when the cells grew to 85%, the culture medium was discarded, and 100 μL/well of 0.05% trypsin (purchased from Gibco) was used to rinse the cells once. After the trypsin was removed, 200 μL of 0.05% trypsin was added to each well. The plate was then placed in a 37° C., 5% CO2 incubator for 10 minutes, and the cells were observed under a microscope (CNOPTEC, BDS400), showing that the cells had completely digested. 300 μL of DMEM/F12 medium containing 10% serum (Excell Bio, FND500) was added to stop the digestion. 20 μL of the resultant was added into a cell counting plate (Countstar, specification: 50 pieces/box), and the total number of cells was counted with a cell counter (Countstar, IC1000). Specifically, Basic Medium without any additives was used as an experimental control, and the experimental results are shown in Table 1.

[2] = tested on: primary cells of intestinal cancer; assay: Effect of different concentrations of factors in CA-1 medium on proliferation (ratio of cell number to Blank Control); format: cell-based, human
[3] = additive at the final concentration in Basic Medium, samples OE0042 and OE(E)003, 7-10 days, compared with Basic Medium
[4] = according to proliferation ratio vs Blank Control, FIGS. 2A-2J

CCCCC[C@H](O)/C=C/[C@H]1[C@H](O)CC(=O)[C@@H]1C/C=C\CCCC(=O)O [prostaglandin E2, reference compound]
Level of promoting cell proliferation [1, 3]: −

C[C@]12CCC(=O)C=C1CC[C@@H]1[C@@H]2[C@@H](O)C[C@@]2(C)[C@H]1CC[C@]2(O)C(=O)CO [hydrocortisone, reference compound]
Level of promoting cell proliferation [1, 3]: ∘

Cc1cccc(-c2nn(C(=S)Nc3ccccc3)cc2-c2ccnc3ccccc23)n1 [A8301, reference compound]
Level of promoting cell proliferation [1, 3]: − | amount in culture medium, more preferably [2, 4]: 200 nM

Oc1ccc(-c2nc(-c3ccncc3)c(-c3ccc(F)cc3)[nH]2)cc1 [SB202190, reference compound]
Level of promoting cell proliferation [1, 3]: ∘

basic fibroblast growth factor: medium additive, growth factor from R&D
Level of promoting cell proliferation [1, 3]: −

epidermal growth factor: medium additive, growth factor from R&D (NSDSECPLSHDGYCLHDGVCMYIEALDKYACNCVVGYIGERCQYRDLKWWELR; Epidermal growth factor; UniProt P01133 971-1023, looked up)
Level of promoting cell proliferation [1, 3]: ∘

C[C@@H](N)[C@H]1CC[C@H](C(=O)Nc2ccncc2)CC1 [Y-27632, reference compound]
amount in culture medium, even more preferably [2, 4]: 5 µM | amount in culture medium, preferably [2, 4]: 2.5 to 40 µM

cholera toxin
Level of promoting cell proliferation [1]: + | amount in culture medium, even more preferably [2]: 5 ng/mL

TGF-β1: medium additive from R&D
Level of promoting cell proliferation [1, 3]: −

hepatocyte growth factor: medium additive, growth factor from Peprotech
Level of promoting cell proliferation [1, 3]: ∘

NC(=O)CC[C@H](N)C(=O)O [glutamine, reference compound]
Level of promoting cell proliferation [1, 3]: −

insulin-like growth factor-1: medium additive, growth factor from R&D
Level of promoting cell proliferation [1, 3]: + | amount in culture medium, more preferably [2, 4]: 45 ng/mL | amount in culture medium, preferably [2, 4]: 5 to 405 ng/mL

insulin: medium additive from Peprotech
Level of promoting cell proliferation [1, 3]: + | amount in culture medium, even more preferably [2, 4]: 2000 ng/mL | amount in culture medium, more preferably [2, 4]: 1000 to 2000 ng/mL | amount in culture medium, preferably [2, 4]: 500 to 4000 ng/mL

NC(=O)c1cccnc1 [nicotinamide, reference compound]
Level of promoting cell proliferation [1, 3]: + | amount in the culture medium, even more preferably [2, 4]: 4 mM | amount in the culture medium, more preferably [2, 4]: 4 to 8 mM | amount in the culture medium, preferably [2, 4]: 2 to 8 mM
